Assay results taken from patent publication US8217060B2, “Benzimidazole derivatives useful as TRP M8 receptor modulators” (Janssen Pharmaceutica, NV, priority 2009, dated 2012).
Counter-ions that a name gives are not always drawn.

Key:
canine TRPM8 = biological target: T1, canine TRPM8 (Canis lupus familiaris, UniProt Q1A7N1); experiment: In Vitro Canine TRPM8 Functional Assay (icilin-induced intracellular Ca2+ fluorescence, FLIPR/FDSS); assay type: cell-based; conditions: HEK293 cells stably expressing canine TRPM8; for inhibition at 0.2 µM: 0.2 μM test compound, icilin challenge; for IC50: icilin challenge (~80% maximal response), eight-point dose-response
T1 construct: expressed in transfected cells
Description: The functional activity of representative compounds of the formula (I) of the present invention were measured by measuring changes in intracellular calcium concentration using a Ca^2+-sensitive fluorescent dye. The changes in fluorescent signal were monitored by a fluorescence plate reader, either a FLIPR™ (Molecular Devices) or FDSS (Hamamatsu).
HEK293 cells stably expressing canine TRPM8 were routinely grown as monolayers in Dulbecco's minimum essential medium supplemented with 10% FBS, 2 mM L-glutamine, 100 units/mL penicillin, 100 ug/mL streptomycin and 400 μg/mL G418. Cells were maintained in 5% CO2 at 37° C. At 24 hrs prior to assay, cells were seeded in black wall, clear-base poly-D-lysine coated 384-well plates (BD Biosciences, NJ, USA) at a density of 5,000 cells per well in culture medium and grown overnight in 5% CO2 at 37° C. On assay day, growth media was removed and cells were loaded with Calcium 3 Dye (Molecular Devices) for 35 min at 37° C., under 5% CO2 and then for 25 min at room temperature and atmosphere. Subsequently, cells were tested for agonist-induced increases in intracellular Ca^2+ levels using FLIPR™ or FDSS. Cells were challenged with compounds of the formula (I) (at varying concentrations) and intracellular Ca^2+ was measured for 5 min prior to the addition of icilin to all wells to achieve a final concentration that produces approximately an 80% maximal response.
Basal FI was subtracted prior to normalizing data to percent of maximal response. Curves were generated using the average of quadruplicate wells for each data point, were analyzed using nonlinear regression of either sigmoidal dose response or sigmoidal dose response (variable slope). Finally, the EC50 and IC50 values were calculated with the best-fit dose curve determined by GraphPad Prism

Male Sprague Dawley rats [1] = experiment: Inhibition of Icilin-Induced “Wet-Dog” Shakes in Rats; assay type: in vivo; conditions: 60 min before icilin 3.0 mg/kg i.p., rat
Description: Male Sprague Dawley rats ([…], Charles River Labs, n=6-9/treatment) were used to evaluate the ability of test compounds to block icilin-induced “wet-dog” shakes (WDS). The test compound was administered in 10% hydroxypropyl-β-cyclodextrin (HP β CD), p.o., 60 minutes before icilin. Icilin was then administered in 10% solutol/H2O, at 3.0 mg/kg, i.p. and spontaneous “wet-dog” shakes were counted over a 10 minute period, 10 minutes following the icilin injection.

Male Sprague Dawley rats [2] = experiment: Chronic Constriction Injury (CCI)-Induced Model of Neuropathic Pain - Acetone-Induced Hypersensitivity; assay type: in vivo; conditions: 10 mg/kg p.o. in 10% HP β CD, rat
Text: Male Sprague Dawley rats (225-450 g; n=5-8/treatment) were used to evaluate the ability of test compounds to reverse CCI-induced cold hypersensitivity. Four loose ligatures of 4-0 chromic gut were surgically placed around the left sciatic nerve under inhalation anesthesia as described by Bennett et al (BENNETT G. J. et al., “A Peripheral Mononeuropathy in Rat that Produces Disorders of Pain Sensation Like Those Seen in Man”, Pain, 1988, pp. 87-107, Vol 33(1)). Fourteen to 35 days following CCI surgery, subjects were placed in elevated observation chambers containing wire mesh floors and five applications of acetone (0.05 mL/application separated by approximately 5 minutes) were spritzed onto the plantar surface of the paw using a multidose syringe. An abrupt withdrawal or lifting of the paw was considered a positive response. The number of positive responses was recorded for each rat over the five trials. Following baseline withdrawal determinations, test compounds were administered in 10% hydroxypropyl-β-cyclodextrin (HP β CD), p.o. The number of withdrawals was re-determined at 2, 3 and 4 hours after compound administration.

T1 sequence (Q1A7N1 1-1104): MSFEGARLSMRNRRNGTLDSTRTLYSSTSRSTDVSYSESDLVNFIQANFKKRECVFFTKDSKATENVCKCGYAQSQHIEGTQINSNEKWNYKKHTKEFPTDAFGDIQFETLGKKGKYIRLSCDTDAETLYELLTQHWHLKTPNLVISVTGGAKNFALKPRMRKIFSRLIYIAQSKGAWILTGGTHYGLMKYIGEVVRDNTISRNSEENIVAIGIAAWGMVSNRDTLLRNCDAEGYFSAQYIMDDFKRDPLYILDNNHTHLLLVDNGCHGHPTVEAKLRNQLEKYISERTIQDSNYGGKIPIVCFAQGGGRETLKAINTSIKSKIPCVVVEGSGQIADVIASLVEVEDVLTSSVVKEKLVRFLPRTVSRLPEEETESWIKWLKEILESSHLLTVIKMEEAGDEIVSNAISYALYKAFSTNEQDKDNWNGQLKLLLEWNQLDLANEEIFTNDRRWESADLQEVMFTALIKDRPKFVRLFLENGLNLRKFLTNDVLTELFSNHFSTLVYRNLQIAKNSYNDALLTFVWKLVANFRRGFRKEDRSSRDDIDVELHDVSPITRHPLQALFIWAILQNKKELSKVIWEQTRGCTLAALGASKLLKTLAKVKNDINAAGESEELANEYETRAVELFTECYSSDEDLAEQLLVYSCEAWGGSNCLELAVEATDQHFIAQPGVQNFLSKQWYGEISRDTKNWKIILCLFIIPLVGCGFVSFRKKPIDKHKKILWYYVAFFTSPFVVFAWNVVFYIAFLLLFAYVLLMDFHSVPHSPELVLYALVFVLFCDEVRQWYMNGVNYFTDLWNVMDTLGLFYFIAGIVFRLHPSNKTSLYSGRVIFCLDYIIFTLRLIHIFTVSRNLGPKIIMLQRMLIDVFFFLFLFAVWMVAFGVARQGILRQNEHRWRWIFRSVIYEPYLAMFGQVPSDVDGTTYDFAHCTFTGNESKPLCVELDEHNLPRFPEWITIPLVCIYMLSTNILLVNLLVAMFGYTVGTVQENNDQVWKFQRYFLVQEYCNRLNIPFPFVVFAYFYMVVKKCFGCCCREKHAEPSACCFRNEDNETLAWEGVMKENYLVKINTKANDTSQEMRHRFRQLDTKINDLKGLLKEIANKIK

FC(F)(F)Oc1ccccc1-c1ccc2[nH]c(/C=C/C3CCCCC3)nc2c1 [Compound 1, 2-(2-Cyclohexyl-vinyl)-5-(2-trifluoromethoxy-phenyl)-1H-benzimidazole hydrochloride salt]
inhibition at 0.2 µM (canine TRPM8): 93% | IC50 (canine TRPM8): 14 nM | % Inhibition of icilin-induced “wet-dog” shakes (Male Sprague Dawley rats [1]; 30 mg/kg p.o.): 48%

FC1(F)CCC(/C=C/c2nc3cc(-c4ccccc4C(F)(F)F)ccc3[nH]2)CC1 [Compound 30, 2-[2-(4,4-Difluoro-cyclohexyl)-vinyl]-5-(2-trifluoromethyl-phenyl)-1H-benzimidazole hydrochloride salt]
inhibition at 0.2 µM (canine TRPM8): 102% | IC50 (canine TRPM8): 3 nM | % Inhibition of icilin-induced “wet-dog” shakes (Male Sprague Dawley rats [1]; 10 mg/kg p.o.): 98%

FC(F)(F)c1ccccc1-c1ccc2[nH]c(/C=C/C3CCOCC3)nc2c1 [Compound 50, (E)-2-[2-(Tetrahydro-pyran-4-yl)-vinyl]-5-(2-trifluoromethyl-phenyl)-1H-benzimidazole hydrochloride]
inhibition at 0.2 µM (canine TRPM8): 101% | IC50 (canine TRPM8): 17 nM | % Inhibition of icilin-induced “wet-dog” shakes (Male Sprague Dawley rats [1]; 10 mg/kg p.o.): 89%

FC(F)(F)c1ncccc1-c1ccc2[nH]c(/C=C/C3CCCCC3)nc2c1 [Compound 56, (E)-2-(2-Cyclohexyl-vinyl)-5-(2-trifluoromethyl-pyridin-3-yl)-1H-benzimidazole hydrochloride]
inhibition at 0.2 µM (canine TRPM8): 99% | IC50 (canine TRPM8): 11 nM

Fc1cccc(C(F)(F)F)c1-c1ccc2[nH]c(/C=C/C3CCCCC3)nc2c1 [Compound 57, (E)-2-(2-Cyclohexyl-vinyl)-5-(2-fluoro-6-trifluoromethyl-phenyl)-1H-benzimidazole]
inhibition at 0.2 µM (canine TRPM8): 101% | IC50 (canine TRPM8): 8 nM

FC(F)(F)c1cccc(C(F)(F)F)c1-c1ccc2[nH]c(/C=C/C3CCCCC3)nc2c1 [Compound 58, (E)-5-(2,6-Bis-trifluoromethyl-phenyl)-2-(2-cyclohexyl-vinyl)-1H-benzimidazole]
inhibition at 0.2 µM (canine TRPM8): 83% | IC50 (canine TRPM8): 9 nM | % Inhibition of icilin-induced “wet-dog” shakes (Male Sprague Dawley rats [1]; 10 mg/kg p.o.): 30%

Fc1cccc(OC(F)(F)F)c1-c1ccc2[nH]c(/C=C/C3CCCCC3)nc2c1 [Compound 59, (E)-2-(2-Cyclohexyl-vinyl)-5-(2-fluoro-6-trifluoromethoxy-phenyl)-1H-benzimidazole]
inhibition at 0.2 µM (canine TRPM8): 96% | IC50 (canine TRPM8): 6 nM | % Inhibition of icilin-induced “wet-dog” shakes (Male Sprague Dawley rats [1]; 10 mg/kg p.o.): 75%

FC(F)(F)c1cccnc1-c1ccc2[nH]c(/C=C/C3CCCCC3)nc2c1 [Compound 60, (E)-2-(2-Cyclohexyl-vinyl)-5-(3-trifluoromethyl-pyridin-2-yl)-1H-benzimidazole]
inhibition at 0.2 µM (canine TRPM8): 92% | IC50 (canine TRPM8): 45 nM

Fc1cccc(F)c1-c1ccc2[nH]c(/C=C/C3CCOCC3)nc2c1 [Compound 61, (E)-5-(2,6-Difluoro-phenyl)-2[2-(tetrahydro-pyran-4-yl)-vinyl]-1H-benzoimidazole hydrochloride]
inhibition at 0.2 µM (canine TRPM8): 97% | IC50 (canine TRPM8): 32 nM

FC(F)(F)c1cccnc1-c1ccc2[nH]c(/C=C/C3CCOCC3)nc2c1 [Compound 62, (E)-2-[2-(Tetrahydro-pyran-4-yl)-vinyl]-5-(3-trifluoromethyl-pyridin-2-yl)-1H-benzoimidazole hydrochloride]
inhibition at 0.2 µM (canine TRPM8): 92% | IC50 (canine TRPM8): 21 nM

Cc1cc(-c2ccccc2C(F)(F)F)cc2nc(/C=C/C3CCC(C)(C)CC3)[nH]c12 [Compound 63, (E)-2-[2-(4,4-Dimethyl-cyclohexyl)-vinyl]-7-methyl-5-(2-trifluoromethyl-phenyl)-1H-benzoimidazole hydrochloride]
inhibition at 0.2 µM (canine TRPM8): 97% | IC50 (canine TRPM8): 12 nM

CC1(C)CCC(/C=C/c2nc3cc(-c4ccccc4C(F)(F)F)ccc3[nH]2)CC1 [Compound 64, (E)-2-[2-(4,4-Dimethyl-cyclohexyl)-vinyl]-5-(2-trifluoromethyl-phenyl)-1H-benzoimidazole hydrochloride]
inhibition at 0.2 µM (canine TRPM8): 98% | IC50 (canine TRPM8): 23 nM

CC1(C)CCC(/C=C/c2nc3cc(-c4c(F)cccc4F)ccc3[nH]2)CC1 [Compound 65, (E)-5-(2,6-Difluoro-phenyl)-2-[2-(4,4-dimethyl-cyclohexyl)-vinyl]-1H-benzoimidazole trifluoroacetic acid salt]
inhibition at 0.2 µM (canine TRPM8): 96% | IC50 (canine TRPM8): 55 nM

CC1(/C=C/c2nc3cc(-c4ccccc4C(F)(F)F)ccc3[nH]2)CCOCC1 [Compound 66, (E)-2-[2-(4-Methyl-tetrahydro-pyran-4-yl)-vinyl]-5-(2-trifluoromethyl-phenyl)-1H-benzimidazole]
inhibition at 0.2 µM (canine TRPM8): 101% | IC50 (canine TRPM8): 31 nM

CC1(/C=C/c2nc3cc(-c4c(C(F)(F)F)cccc4C(F)(F)F)ccc3[nH]2)CCOCC1 [Compound 67, (E)-5-(2,6-Bis-trifluoromethyl-phenyl)-2-[2-(4-methyl-tetrahydro-pyran-4-yl)-vinyl]-1H-benzimidazole]
inhibition at 0.2 µM (canine TRPM8): 100% | IC50 (canine TRPM8): 13 nM

C/C(=C\c1nc2cc(-c3ccccc3C(F)(F)F)ccc2[nH]1)C1CCCCC1 [Compound 69, (E)-2-(2-Cyclohexyl-propenyl)-5-(2-trifluoromethyl-phenyl)-1H-benzimidazole]
inhibition at 0.2 µM (canine TRPM8): 102% | IC50 (canine TRPM8): 11 nM

FC(F)(F)c1ccccc1-c1ccc2[nH]c(/C=C/C34CCC(Br)(CC3)CC4)nc2c1 [Compound 70, (E)-2-[2-(4-Bromo-bicyclo[2.2.2]oct-1-yl)-vinyl]-5-(2-trifluoromethyl-phenyl)-1H-benzoimidazole]
inhibition at 0.2 µM (canine TRPM8): 97% | IC50 (canine TRPM8): 11 nM

Cl.FC(F)(F)c1ccccc1-c1ccc2[nH]c(/C=C/C3CCCCC3)nc2c1 [Compound 71, 2-(2-Cyclohexyl-vinyl)-5-(2-trifluoromethyl-phenyl)-1H-benzoimidazole hydrochloride]
inhibition at 0.2 µM (canine TRPM8): 94% | IC50 (canine TRPM8): 9 nM | % Inhibition (acetone-evoked paw withdrawals, CCI) (Male Sprague Dawley rats [2]; 2 h after administration): 91% | % Inhibition (acetone-evoked paw withdrawals, CCI) (Male Sprague Dawley rats [2]; 3 h after administration): 91% | % Inhibition (acetone-evoked paw withdrawals, CCI) (Male Sprague Dawley rats [2]; 4 h after administration): 77% | % Inhibition of icilin-induced “wet-dog” shakes (Male Sprague Dawley rats [1]; 30 mg/kg p.o.): 90%
